Literature values in patent US9622976B2, “Pharmaceutical composition” (LEK PHARMACEUTICALS D.D., priority 2006, dated 2017).

Conditions: pH 6.8 phosphate buffer

For `CCCc1nc2c(C)cc(-c3nc4ccccc4n3C)cc2n1Cc1ccc(-c2ccccc2C(=O)O)cc1` [Telmisartan, 2-[4-[[4-methyl-6-(1-methylbenzoimidazol-2-yl)-2-propyl-benzoimidazol-1-yl]methyl]phenyl]benzoic acid], the solubility is listed as ≤ 2 μg per ml.
